These results are taken from patent US11345914B2, “Composition for delivering nucleic acid and nucleic acid-containing composition” (TOKYO UNIVERSITY OF PHARMACY AND LIFE SCIENCES, priority 2017, dated 2022).

The test system of the assay is CIA (Collagen-Induced Arthritis) Mouse. Kind of assay: In vivo evaluation arthritis treatment effect of CIA mice. The conditions noted are these: until 15th day, siRNA (RelA) 20 μg/day tail vein (composition as Example 24, N/P 20), MTX 90 μg intraperitoneal. On the procedure: Under ice-cooling, while adding an equal amount of type II collagen solution (2 mg/mL) dropwise to complete Freund's adjuvant (CFA), the mixture was homogenized to prepare an emulsion. Similarly, while adding an equal amount of type II collagen solution (2 mg/mL) dropwise to incomplete Freund's adjuvant (IFA), the mixture was homogenized to prepare an emulsion. The prepared emulsion was confirmed to have formed a w/o type emulsion by maintaining a sphere even when it was dropped on the water surface, and was used in the experiment.
Using 8-weeks old male DBA/1J mice, CIA mice were prepared. In the following, the schedule for preparing CIA mice is shown. 100 μL of the emulsion obtained from type II collagen and CFA prepared at −21′ day was intradermally administered to the tail root portion to carry out induction of the first immunization. 100 μL of the emulsion obtained from type II collagen and […] prepared at 0th day was similarly intradermally administered to carry out additional induction of the immunization. At this time, the intradermal administration was carried out reliably was confirmed by the fact that the administered site was protruded with white. […]
Thickening of the hindlimb ankle joint portion was measured by using a micrometer. […]
Clinical score was calculated as follows. […]

In the case of `CN(Cc1cnc2nc(N)nc(N)c2n1)c1ccc(C(=O)N[C@@H](CCC(=O)O)C(=O)O)cc1` [MTX, methotrexate], for the setting “FIG. 4”, the “thickening increasing rate of the hindlimbs” value is “thickening of the hindlimbs was admitted”. Besides, the clinical score entry (FIG. 5) is given as “remarkable increase in the clinical score was admitted”.
